The text below walks through data of patent US20200155579A1, “Process for Hydrating Cyclophosphamide Freeze-Dried Composition and Product Thereof” (priority 2018, published 2020).

Data set [1] in a line: CPP content determination (HPLC). It counts as physicochemical. The following applies: raw material, initial.
Method: Preparation of sample stock solution (1 mg/ml anhydrous Cyclophosphamide): an appropriate amount of water is charged into sample bottle with shaking until complete dissolution of the sample, which is transferred to 500 ml volumetric flask. The sample bottle is washed with pure water to ensure complete transfer of all samples into the volumetric flask. The volumetric flask is metered into calibration and shaken for homogeneity.
Preparation of sample solution (0.5 mg/ml anhydrous Cyclophosphamide): 25 ml of sample stock solution and 5.0 ml of internal control solution (precisely weighed 185 mg of ethyl p-hydroxybenzoate control is dissolved in 1000 ml volumetric flask, to which is added 250 ml of ethanol. After shaking for dissolution, pure water is used to meter to calibration with shaking) are charged in 50 ml volumetric flask, which is metered with pure water to calibration with shaking and then used for HPLC analysis.
Data set [2] is described as follows: Stability in 40° C./75% RH stability test chamber (CPP content). It counts as physicochemical. The following applies: raw material.
Method: The CPP freeze-dried composition hydrated for 16 h was placed in 40° C./75% RH stability test chamber, was sampled after 1 month and 3 months, and determined for CPP contents, which were compared with CPP monohydrate obtained by prior art hydrating process.
The CPP freeze-dried composition hydrated for 16 h was placed in 40° C./75% RH stability test chamber, sampled after 1 month and 3 months for determining CPP contents.
The conditions of data set [3]: raw material.
Method: The moisture content, CPP content and redissolving time were determined for CPP freeze-dried composition hydrated with saturated sodium chloride solution in the freeze-drying box, respectively. In addition, the CPP freeze-dried compositions hydrated for 16 h and 24 h were placed in 45° C. oven and sampled for determining CPP contents after 1 week and 2 weeks, respectively.
Moisture content, CPP content and redissolving time were determined for CPP freeze-dried composition hydrated with saturated sodium chloride solution in the dryer, respectively. In addition, the CPP freeze-dried composition hydrated for 16 h was placed in 45° C. oven, sampled after 1 week and 2 weeks, respectively and determined for CPP contents. The CPP freeze-dried composition hydrated for 16 h was placed in 40° C./75% RH stability test chamber, was sampled after 1 month and 3 months, and determined for CPP contents, which were compared with CPP monohydrate obtained by prior art hydrating process.
The moisture content, CPP content and redissolving time were determined for CPP freeze-dried composition hydrated with saturated potassium sulfate solution in the dryer, respectively. In addition, the CPP freeze-dried composition hydrated for 16 h was placed in 45° C. oven and was sampled for determining CPP contents after 1 week and 2 weeks, respectively. […]
Data set [4] is described as follows: Bulk density (USP <616> Method I). It counts as physicochemical. The settings on record: active ingredient; strength NA, hydration solution NA. Here is the method:
BD is calculated by the following formula: […]
W is the theoretical weight, g;
V0 is the macroscopic volume, mL.
V0 is calculated by the following formula: […]
D is the theoretical inside diameter, cm;

Data set [5] is described as follows: Tapped density (USP <616> Method I). Format: physicochemical. The following applies: active ingredient; strength NA, hydration solution NA.
The nature of data set [6]: Skeletal density (gas pycnometer). The settings on record: active ingredient; strength NA, hydration solution NA. Format: physicochemical. Here is the method: Skeletal Density, also known as true density, is determined at room temperature by Gas Pycnometer (Micromeritics Accupyc II 1340). Skeletal density is calculated by the following formula: […]
V1 is the true volume of the test sample, measured by Gas Pycnometer, mL.

Data set [7] is described as follows: Porosity (calculated from bulk and skeletal density). It counts as physicochemical. The settings on record: active ingredient; strength NA, hydration solution NA. Here is the method:
The porosity is calculated with the macroscopic volume (V0) & true volume (V1) or the bulk density (ρ0) & skeletal density (ρ1) by the following formula: […]

Data set [8] can be described thus: Reconstitution time (0.9% sodium chloride injection, cyclotron 250 rpm). It counts as physicochemical. The settings on record: active ingredient. Here is the method: Then the glass vial is placed on cyclotron (HY-5, Shanghai Suhao intelligent system Co. Ltd) which makes the glass vial oscillate at 250 rpm at room temperature to dissolve the active ingredient completely. The reconstitution time is recorded in Table 20.

Data set [9] is classed as physicochemical. The settings on record: air dispersion/dry model; hydration pressure 50 kPa. Here is the method:
The hydrated CPP freeze-dried composition is stirred by weighting scoop gently until flowable powder comes into being. Then 1-2 g test sample is added on injection plate. Test method and parameters are as follows:
It will be understood by a person of ordinary skill in the art that a common approach to defining the distribution width is to cite three values on the x-axis, the D10, D50, and D90. As used herein, the term “D50” refers to the median particle diameter, wherein half of the particle population has a diameter below such value. As used herein, the term “D90,” refers to the particle diameter wherein 90% of the particle population has a diameter below such value. As used herein, the term “D10,” refers to the particle diameter wherein 10% of the particle population has a diameter below such value.

For data set [10] the following is noted: general description; cited from earlier work.

Compound `O=P1(N(CCCl)CCCl)NCCCO1` (stereo not drawn) [CPP monohydrate raw material, P-[N,N-bis(β-chloroethyl)]-1-oxa-3-aza-2-phosphocyclohexane-P-oxide] yielded a CPP content % in data set [1] of 99.6%. In data set [2], the “Stability-CPP content % 40° C./75% RH-1 month” value is given as 98.9% and the “Stability-CPP content % 40° C./75% RH-3 month” value was found to be 86.1%. In data set [3], the “Stability-CPP content % 45° C.-1 week” value is given as 106.1% and the “Stability-CPP content % 45° C.-2 week” value is recorded as 101.8%.
On to `O=P1(N(CCCl)CCCl)NCCCO1` (stereo not drawn) [P-[N,N-bis(β-chloroethyl)]-1-oxa-3-aza-2-phosphocyclohexane-P-oxide], for which, in data set [4], the “Bulk Density” value came out at 0.6246 g/mL. For the same compound, in data set [5], the “Tapped Density” value is given as 0.9369 g/mL. Besides, the “Skeletal Density” value in data set [6] is 1.4286 g/mL. In addition, the Porosity in data set [7] is 56.28%. Besides, the Reconstitution time in [8] (strength 0.5 g) turned out to be 8.7 min; in data set [8] (strength 1 g), 11.2 min; in data set [8] (strength 2 g) it was 16.4 min. This compound also showed a D10 in data set [9] of 5.6 μm. In addition, in data set [9], the D50 was 34.8 μm. The compound also displayed a D90 in data set [9] of 262.0 μm. Further, the Solubility entry in data set [10] is reported as “soluble in water, normal saline or ethanol”.
